The values that follow are results of earlier work, collected in patent US9949941B2, “GABA analog prodrug sustained release oral dosage forms” (XENOPORT, INC., priority 2004, dated 2018).

The conditions of data set [1]: dosed either orally or directly into the colon of a mammal.

As for `CC(OC(=O)NCC1(CC(=O)O)CCCCC1)OC(=O)C(C)C` (stereo not drawn) [Compound (1), 1-{[(α-isobutanoyloxyethoxy)carbonyl]aminomethyl}-1-cyclohexane acetic acid], in data set [1], the bioavailability as gabapentin result is reported as “high bioavailability”.

For the molecule `NCC1(CC(=O)O)CCCCC1` [gabapentin], the “Tmax following administration of gabapentin alone” value (fasted and fed patients) was 2 to 4 h. Besides, the “typical Tmax of immediate release gabapentin” value (immediate release gabapentin) is 2 to 4 h.
